According to PubChem BioAssay (NCI):
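GI50 marks 50% less growth. TGI is the concentration that stops growth completely.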

How the values were obtained:
Test in all cases: DTP human tumour cell line panel, 384-well format
A549 NSCLC = tested on: A549 NSCLC
HOP-92 NSCLC = tested on: HOP-92 NSCLC
NCI-H226 lung = tested on: NCI-H226 lung
NCI-H23 lung = tested on: NCI-H23 lung
MDA-MB-231 breast = tested on: MDA-MB-231 breast
NCI-H522 lung = tested on: NCI-H522 lung
SF-295 CNS = tested on: SF-295 CNS
SF-268 CNS = tested on: SF-268 CNS
HL-60(TB) leukemia = tested on: HL-60(TB) leukemia
MALME-3M melanoma = tested on: MALME-3M melanoma
HS 578T breast = tested on: HS 578T breast
KM12 colon = tested on: KM12 colon
PC-3 prostate = tested on: PC-3 prostate
SNB-75 CNS = tested on: SNB-75 CNS
UO-31 renal = tested on: UO-31 renal
T-47D breast = tested on: T-47D breast
HT29 colon = tested on: HT29 colon
NCI-H460 NSCLC = tested on: NCI-H460 NSCLC
SW-620 colon = tested on: SW-620 colon
LOX IMVI melanoma = tested on: LOX IMVI melanoma
MDA-MB-435 melanoma = tested on: MDA-MB-435 melanoma
SNB-19 CNS = tested on: SNB-19 CNS
MDA-MB-468 breast = tested on: MDA-MB-468 breast
OVCAR-4 ovarian = tested on: OVCAR-4 ovarian
HCC-2998 colon = tested on: HCC-2998 colon
786-0 renal = tested on: 786-0 renal
M14 melanoma = tested on: M14 melanoma
NCI-H322M lung = tested on: NCI-H322M lung
NCI/ADR-RES ovarian = tested on: NCI/ADR-RES ovarian
SR leukemia = tested on: SR leukemia
SK-MEL-5 melanoma = tested on: SK-MEL-5 melanoma
IGROV1 ovarian = tested on: IGROV1 ovarian
COLO 205 colon = tested on: COLO 205 colon
U251 glioblastoma = tested on: U251 glioblastoma
UACC-257 melanoma = tested on: UACC-257 melanoma
HOP-62 NSCLC = tested on: HOP-62 NSCLC
SK-MEL-28 melanoma = tested on: SK-MEL-28 melanoma
MOLT-4 leukemia = tested on: MOLT-4 leukemia
SF-539 CNS = tested on: SF-539 CNS
EKVX NSCLC = tested on: EKVX NSCLC
UACC-62 melanoma = tested on: UACC-62 melanoma
RXF 393 renal = tested on: RXF 393 renal
CAKI-1 renal = tested on: CAKI-1 renal
SN12C renal = tested on: SN12C renal
RPMI-8226 leukemia = tested on: RPMI-8226 leukemia
SK-OV-3 ovarian = tested on: SK-OV-3 ovarian
OVCAR-3 ovarian = tested on: OVCAR-3 ovarian
BT-549 breast = tested on: BT-549 breast
HCT-15 colon = tested on: HCT-15 colon
CCRF-CEM leukemia = tested on: CCRF-CEM leukemia
OVCAR-5 ovarian = tested on: OVCAR-5 ovarian
K-562 leukemia = tested on: K-562 leukemia

## CN1C/C=C/CCOc2cccc(c2)-c2ccnc(n2)Nc2cccc(c2)C1
A549 NSCLC
  GI50: 35.2 nM
  TGI: 1090 nM
HOP-92 NSCLC
  GI50: 44.3 nM
  TGI: 3560 nM
NCI-H226 lung
  GI50: 26.9 nM
  TGI: 86 nM
NCI-H23 lung
  TGI: 106 nM
MDA-MB-231 breast
  GI50: 51.5 nM
  TGI: 296 nM
NCI-H522 lung
  GI50: 59.8 nM
  TGI: 227 nM
SF-295 CNS
  GI50: 34 nM
  TGI: 504 nM
SF-268 CNS
  GI50: 22.9 nM
  TGI: 67.8 nM
HL-60(TB) leukemia
  GI50: 16 nM
  TGI: 29.8 nM
MALME-3M melanoma
  GI50: 33.5 nM
  TGI: 88.3 nM
HS 578T breast
  GI50: 18.7 nM
  TGI: 43.3 nM
KM12 colon
  GI50: 26 nM
  TGI: 74.7 nM
PC-3 prostate
  GI50: 31.1 nM
  TGI: 94.9 nM
SNB-75 CNS
  GI50: 26 nM
  TGI: 65.9 nM
UO-31 renal
  GI50: 20.6 nM
  TGI: 40.7 nM
T-47D breast
  GI50: 41.6 nM
  TGI: 1200 nM
HT29 colon
  GI50: 36.5 nM
  TGI: 203 nM
NCI-H460 NSCLC
  GI50: 19.9 nM
  TGI: 41.9 nM
SW-620 colon
  GI50: 38.1 nM
  TGI: 279 nM
LOX IMVI melanoma
  GI50: 18.5 nM
  TGI: 35.7 nM
MDA-MB-435 melanoma
  GI50: 29.2 nM
  TGI: 88.9 nM
SNB-19 CNS
  GI50: 41.1 nM
  TGI: 1600 nM
MDA-MB-468 breast
  GI50: 42.7 nM
  TGI: 147 nM
OVCAR-4 ovarian
  TGI: 602 nM
HCC-2998 colon
  GI50: 32.5 nM
  TGI: 219 nM
786-0 renal
  GI50: 37 nM
  TGI: 224 nM
M14 melanoma
  GI50: 37.7 nM
  TGI: 118 nM
NCI-H322M lung
  GI50: 30.1 nM
  TGI: 90.6 nM
NCI/ADR-RES ovarian
  GI50: 34.2 nM
  TGI: 124 nM
SR leukemia
  TGI: 14.9 nM
SK-MEL-5 melanoma
  GI50: 22 nM
  TGI: 53.6 nM
IGROV1 ovarian
  TGI: 128 nM
COLO 205 colon
  GI50: 24.7 nM
  TGI: 57.8 nM
U251 glioblastoma
  GI50: 34 nM
  TGI: 520 nM
UACC-257 melanoma
  GI50: 58.2 nM
  TGI: 208 nM
HOP-62 NSCLC
  GI50: 21.6 nM
  TGI: 49.4 nM
SK-MEL-28 melanoma
  GI50: 25.7 nM
  TGI: 86.5 nM
MOLT-4 leukemia
  GI50: 19.8 nM
  TGI: 37.2 nM
SF-539 CNS
  GI50: 25.2 nM
  TGI: 62.6 nM
EKVX NSCLC
  GI50: 50.2 nM
  TGI: 192 nM
UACC-62 melanoma
  GI50: 18.6 nM
  TGI: 45.4 nM
RXF 393 renal
  GI50: 19.2 nM
  TGI: 35.4 nM
CAKI-1 renal
  GI50: 30.1 nM
  TGI: 1140 nM
SN12C renal
  GI50: 27.6 nM
  TGI: 90.3 nM
RPMI-8226 leukemia
  GI50: 23.7 nM
  TGI: 50.6 nM
SK-OV-3 ovarian
  GI50: 65.3 nM
  TGI: 1140 nM
OVCAR-3 ovarian
  GI50: 22.9 nM
  TGI: 60.3 nM
BT-549 breast
  GI50: 23.5 nM
  TGI: 50.2 nM
HCT-15 colon
  GI50: 30.1 nM
  TGI: 119 nM
CCRF-CEM leukemia
  GI50: 18.7 nM
  TGI: 35.5 nM
OVCAR-5 ovarian
  GI50: 29.4 nM
  TGI: 7380 nM
K-562 leukemia
  GI50: 71 nM
  TGI: 307 nM
